According to PubChem BioAssay (NCI):
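Each compound was tested at five concentrations against cells in 96-well plates for 48 hours. GI50 is the concentration that inhibits growth by half. TGI: total growth inhibition.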

Columns and labels:
Test in all cases: NCI-60 cell line screen, 48 h
786-0 renal = tested on: 786-0 renal
A498 renal = tested on: A498 renal
A549 NSCLC = tested on: A549 NSCLC
ACHN renal = tested on: ACHN renal
BT-549 breast = tested on: BT-549 breast
CAKI-1 renal = tested on: CAKI-1 renal
CCRF-CEM leukemia = tested on: CCRF-CEM leukemia
COLO 205 colon = tested on: COLO 205 colon
DU-145 prostate = tested on: DU-145 prostate
EKVX NSCLC = tested on: EKVX NSCLC
HCC-2998 colon = tested on: HCC-2998 colon
HCT-116 colon = tested on: HCT-116 colon
HCT-15 colon = tested on: HCT-15 colon
HL-60(TB) leukemia = tested on: HL-60(TB) leukemia
HOP-62 NSCLC = tested on: HOP-62 NSCLC
HOP-92 NSCLC = tested on: HOP-92 NSCLC
HS 578T breast = tested on: HS 578T breast
HT29 colon = tested on: HT29 colon
IGROV1 ovarian = tested on: IGROV1 ovarian
K-562 leukemia = tested on: K-562 leukemia
KM12 colon = tested on: KM12 colon
LOX IMVI melanoma = tested on: LOX IMVI melanoma
M14 melanoma = tested on: M14 melanoma
MALME-3M melanoma = tested on: MALME-3M melanoma
MCF7 breast = tested on: MCF7 breast
MDA-MB-231 breast = tested on: MDA-MB-231 breast
MDA-MB-435 = tested on: MDA-MB-435
MOLT-4 leukemia = tested on: MOLT-4 leukemia
NCI-H226 lung = tested on: NCI-H226 lung
NCI-H23 lung = tested on: NCI-H23 lung
NCI-H460 lung = tested on: NCI-H460 lung
NCI-H522 lung = tested on: NCI-H522 lung
NCI/ADR-RES ovarian = tested on: NCI/ADR-RES ovarian
OVCAR-3 ovarian = tested on: OVCAR-3 ovarian
OVCAR-4 ovarian = tested on: OVCAR-4 ovarian
OVCAR-5 ovarian = tested on: OVCAR-5 ovarian
OVCAR-8 ovarian = tested on: OVCAR-8 ovarian
PC-3 prostate = tested on: PC-3 prostate
RPMI-8226 leukemia = tested on: RPMI-8226 leukemia
RXF 393 renal = tested on: RXF 393 renal
SF-268 CNS = tested on: SF-268 CNS
SF-295 CNS = tested on: SF-295 CNS
SF-539 CNS = tested on: SF-539 CNS
SK-MEL-2 melanoma = tested on: SK-MEL-2 melanoma
SK-MEL-28 melanoma = tested on: SK-MEL-28 melanoma
SK-MEL-5 melanoma = tested on: SK-MEL-5 melanoma
SK-OV-3 ovarian = tested on: SK-OV-3 ovarian
SN12C renal = tested on: SN12C renal
SNB-19 CNS = tested on: SNB-19 CNS
SNB-75 CNS = tested on: SNB-75 CNS
SR leukemia = tested on: SR leukemia
SW-620 colon = tested on: SW-620 colon
T-47D breast = tested on: T-47D breast
TK-10 renal = tested on: TK-10 renal
U251 CNS = tested on: U251 CNS
UACC-257 melanoma = tested on: UACC-257 melanoma
UACC-62 melanoma = tested on: UACC-62 melanoma
UO-31 renal = tested on: UO-31 renal

SMILES: Oc1ccc(OCCOc2ccc(O)cc2)cc1
- GI50 (786-0 renal): 3.26 µM
- TGI (786-0 renal): > 100 µM
- GI50 (A498 renal): 3.17 µM
- TGI (A498 renal): > 100 µM
- GI50 (A549 NSCLC): 3.5 µM
- TGI (A549 NSCLC): > 100 µM
- GI50 (ACHN renal): 0.964 µM
- TGI (ACHN renal): > 100 µM
- GI50 (BT-549 breast): 8.08 µM
- TGI (BT-549 breast): > 100 µM
- GI50 (CAKI-1 renal): 0.987 µM
- TGI (CAKI-1 renal): 20.6 µM
- GI50 (CCRF-CEM leukemia): 2.27 µM
- TGI (CCRF-CEM leukemia): > 100 µM
- GI50 (COLO 205 colon): 21.3 µM
- TGI (COLO 205 colon): 60.6 µM
- GI50 (DU-145 prostate): 2.8 µM
- TGI (DU-145 prostate): > 100 µM
- GI50 (EKVX NSCLC): 11.2 µM
- TGI (EKVX NSCLC): > 100 µM
- GI50 (HCC-2998 colon): 3.36 µM
- TGI (HCC-2998 colon): 95.9 µM
- GI50 (HCT-116 colon): 6.24 µM
- TGI (HCT-116 colon): > 100 µM
- GI50 (HCT-15 colon): 8.55 µM
- TGI (HCT-15 colon): > 100 µM
- GI50 (HL-60(TB) leukemia): 5.22 µM
- TGI (HL-60(TB) leukemia): > 100 µM
- GI50 (HOP-62 NSCLC): 8.97 µM
- TGI (HOP-62 NSCLC): > 100 µM
- GI50 (HOP-92 NSCLC): 3.65 µM
- TGI (HOP-92 NSCLC): > 100 µM
- GI50 (HS 578T breast): > 100 µM
- TGI (HS 578T breast): > 100 µM
- GI50 (HT29 colon): 12.7 µM
- TGI (HT29 colon): > 100 µM
- GI50 (IGROV1 ovarian): 5.94 µM
- TGI (IGROV1 ovarian): > 100 µM
- GI50 (K-562 leukemia): 3.08 µM
- TGI (K-562 leukemia): > 100 µM
- GI50 (KM12 colon): 2.26 µM
- TGI (KM12 colon): > 100 µM
- GI50 (LOX IMVI melanoma): 1.24 µM
- TGI (LOX IMVI melanoma): > 100 µM
- GI50 (M14 melanoma): 3.03 µM
- TGI (M14 melanoma): 23.5 µM
- GI50 (MALME-3M melanoma): 3.69 µM
- TGI (MALME-3M melanoma): > 100 µM
- GI50 (MCF7 breast): 4.77 µM
- TGI (MCF7 breast): > 100 µM
- GI50 (MDA-MB-231 breast): 0.414 µM
- TGI (MDA-MB-231 breast): > 100 µM
- GI50 (MDA-MB-435): 3.22 µM
- TGI (MDA-MB-435): > 100 µM
- GI50 (MOLT-4 leukemia): 8.82 µM
- TGI (MOLT-4 leukemia): > 100 µM
- GI50 (NCI-H226 lung): 4.98 µM
- TGI (NCI-H226 lung): > 100 µM
- GI50 (NCI-H23 lung): 4.5 µM
- TGI (NCI-H23 lung): > 100 µM
- GI50 (NCI-H460 lung): 3.57 µM
- TGI (NCI-H460 lung): > 100 µM
- GI50 (NCI-H522 lung): 1.72 µM
- TGI (NCI-H522 lung): 55.9 µM
- GI50 (NCI/ADR-RES ovarian): 3.41 µM
- TGI (NCI/ADR-RES ovarian): > 100 µM
- GI50 (OVCAR-3 ovarian): 5.67 µM
- TGI (OVCAR-3 ovarian): > 100 µM
- GI50 (OVCAR-4 ovarian): > 100 µM
- TGI (OVCAR-4 ovarian): > 100 µM
- GI50 (OVCAR-5 ovarian): 10.4 µM
- TGI (OVCAR-5 ovarian): > 100 µM
- GI50 (OVCAR-8 ovarian): 3.37 µM
- TGI (OVCAR-8 ovarian): > 100 µM
- GI50 (PC-3 prostate): 2.75 µM
- TGI (PC-3 prostate): > 100 µM
- GI50 (RPMI-8226 leukemia): 9.24 µM
- TGI (RPMI-8226 leukemia): > 100 µM
- GI50 (RXF 393 renal): 6.18 µM
- TGI (RXF 393 renal): > 100 µM
- GI50 (SF-268 CNS): 3.94 µM
- TGI (SF-268 CNS): > 100 µM
- GI50 (SF-295 CNS): 2.36 µM
- TGI (SF-295 CNS): 16.6 µM
- GI50 (SF-539 CNS): 2.2 µM
- TGI (SF-539 CNS): 28.2 µM
- GI50 (SK-MEL-2 melanoma): 8.26 µM
- TGI (SK-MEL-2 melanoma): 82.6 µM
- GI50 (SK-MEL-28 melanoma): 88.9 µM
- TGI (SK-MEL-28 melanoma): > 100 µM
- GI50 (SK-MEL-5 melanoma): 1.5 µM
- TGI (SK-MEL-5 melanoma): 4.36 µM
- GI50 (SK-OV-3 ovarian): 99.2 µM
- TGI (SK-OV-3 ovarian): > 100 µM
- GI50 (SN12C renal): 5.72 µM
- TGI (SN12C renal): > 100 µM
- GI50 (SNB-19 CNS): 27.8 µM
- TGI (SNB-19 CNS): > 100 µM
- GI50 (SNB-75 CNS): > 100 µM
- TGI (SNB-75 CNS): > 100 µM
- GI50 (SR leukemia): 7.41 µM
- TGI (SR leukemia): > 100 µM
- GI50 (SW-620 colon): 3.68 µM
- TGI (SW-620 colon): > 100 µM
- GI50 (T-47D breast): 4.15 µM
- TGI (T-47D breast): > 100 µM
- GI50 (TK-10 renal): 6.65 µM
- TGI (TK-10 renal): > 100 µM
- GI50 (U251 CNS): 4.41 µM
- TGI (U251 CNS): > 100 µM
- GI50 (UACC-257 melanoma): 6.08 µM
- TGI (UACC-257 melanoma): > 100 µM
- GI50 (UACC-62 melanoma): 2.45 µM
- TGI (UACC-62 melanoma): 13.8 µM
- GI50 (UO-31 renal): 1.47 µM
- TGI (UO-31 renal): 8.83 µM
